Reference: the NIST ThermoML archive (doi:10.1016/j.jct.2006.04.007)
Several values for one entry are separate records, joined by “and”; a condition that tells them apart may be missing. Identical values can stand only once.

Assay: mn = molality of the nth substance listed, in mol/kg
Settings: 350 kPa, Liquid; for apparent molar heat capacity: Extra sensitive DSC

CC(=O)N[C@@H](C=O)[C@@H](O)[C@H](O)[C@H](O)CO [N-acetyl-D-glucosamine] + O
Settings | apparent molar heat capacity | mass density
318.15 K, m1 = 0.1999 | – | 1004.1 kg/m3
318.15 K, m1 = 0.3018 | – | 1010.81 kg/m3
318.15 K, m1 = 0.5001 | – | 1023.43 kg/m3
318.15 K, m1 = 0.7003 | – | 1035.3 kg/m3
318.15 K, m1 = 0.958 | – | 1051.87 kg/m3
323.15 K, m1 = 0.0096 | 516 J/K/mol | –
323.15 K, m1 = 0.0207 | 501 J/K/mol | –
323.15 K, m1 = 0.03 | 483 J/K/mol and 488 J/K/mol | –
323.15 K, m1 = 0.07 | 493.4 J/K/mol | –
323.15 K, m1 = 0.1502 | 483.4 J/K/mol | –
323.15 K, m1 = 0.1999 | 495.3 J/K/mol | –
323.15 K, m1 = 0.3018 | 498.2 J/K/mol | –
323.15 K, m1 = 0.5001 | 502.3 J/K/mol | –
323.15 K, m1 = 0.7003 | 503 J/K/mol | –
323.15 K, m1 = 0.958 | 484.1 J/K/mol | –
328.15 K, m1 = 0.0096 | 524 J/K/mol | –
328.15 K, m1 = 0.01 | – | 986.41 kg/m3
328.15 K, m1 = 0.02 | – | 987.4 kg/m3
328.15 K, m1 = 0.0207 | 509 J/K/mol | –
328.15 K, m1 = 0.03 | 490 J/K/mol and 497 J/K/mol | 987.95 kg/m3 and 987.87 kg/m3
328.15 K, m1 = 0.07 | 501.3 J/K/mol | 990.79 kg/m3
328.15 K, m1 = 0.1502 | 492.7 J/K/mol | 997.12 kg/m3
328.15 K, m1 = 0.1999 | 503.9 J/K/mol | 999.48 kg/m3
328.15 K, m1 = 0.3018 | 506.8 J/K/mol | 1006.12 kg/m3
328.15 K, m1 = 0.5001 | 510.8 J/K/mol | 1018.64 kg/m3
328.15 K, m1 = 0.7003 | 511.5 J/K/mol | 1030.41 kg/m3
328.15 K, m1 = 0.958 | 492.8 J/K/mol | 1046.86 kg/m3
333.15 K, m1 = 0.0096 | 532 J/K/mol | –
333.15 K, m1 = 0.0207 | 517 J/K/mol | –
333.15 K, m1 = 0.03 | 498 J/K/mol and 506 J/K/mol | –
333.15 K, m1 = 0.07 | 509.2 J/K/mol | –
333.15 K, m1 = 0.1502 | 501.5 J/K/mol | –
333.15 K, m1 = 0.1999 | 512.1 J/K/mol | –
333.15 K, m1 = 0.3018 | 514.9 J/K/mol | –
333.15 K, m1 = 0.5001 | 518.8 J/K/mol | –
333.15 K, m1 = 0.7003 | 519.6 J/K/mol | –
333.15 K, m1 = 0.958 | 501.1 J/K/mol | –
338.15 K, m1 = 0.0096 | 540 J/K/mol | –
338.15 K, m1 = 0.0207 | 524 J/K/mol | –
338.15 K, m1 = 0.03 | 505 J/K/mol and 514 J/K/mol | –
338.15 K, m1 = 0.07 | 517 J/K/mol | –
338.15 K, m1 = 0.1502 | 510.1 J/K/mol | –
338.15 K, m1 = 0.1999 | 520 J/K/mol | –
338.15 K, m1 = 0.3018 | 522.8 J/K/mol | –
338.15 K, m1 = 0.5001 | 526.6 J/K/mol | –
338.15 K, m1 = 0.7003 | 527.5 J/K/mol | –
338.15 K, m1 = 0.958 | 509.1 J/K/mol | –
343.15 K, m1 = 0.0096 | 547 J/K/mol | –
343.15 K, m1 = 0.0207 | 532 J/K/mol | –
343.15 K, m1 = 0.03 | 511 J/K/mol and 523 J/K/mol | –
343.15 K, m1 = 0.07 | 524.3 J/K/mol | –
343.15 K, m1 = 0.1502 | 518.1 J/K/mol | –
343.15 K, m1 = 0.1999 | 527.4 J/K/mol | –
343.15 K, m1 = 0.3018 | 530.1 J/K/mol | –
343.15 K, m1 = 0.5001 | 533.9 J/K/mol | –
343.15 K, m1 = 0.7003 | 535 J/K/mol | –
343.15 K, m1 = 0.958 | 516.5 J/K/mol | –
348.15 K, m1 = 0.0096 | 554 J/K/mol | –
348.15 K, m1 = 0.01 | – | 975.69 kg/m3
348.15 K, m1 = 0.02 | – | 976.44 kg/m3
348.15 K, m1 = 0.0207 | 538 J/K/mol | –
348.15 K, m1 = 0.03 | 518 J/K/mol and 531 J/K/mol | 977.15 kg/m3 and 977.05 kg/m3
348.15 K, m1 = 0.07 | 531.6 J/K/mol | 979.84 kg/m3
348.15 K, m1 = 0.1502 | 525.9 J/K/mol | 986.13 kg/m3
348.15 K, m1 = 0.1999 | 534.7 J/K/mol | 988.48 kg/m3
348.15 K, m1 = 0.3018 | 537.2 J/K/mol | 995.03 kg/m3
348.15 K, m1 = 0.5001 | 540.8 J/K/mol | 1007.4 kg/m3
348.15 K, m1 = 0.7003 | 542.3 J/K/mol | 1019.03 kg/m3
348.15 K, m1 = 0.958 | 523.5 J/K/mol | 1035.29 kg/m3
353.15 K, m1 = 0.0096 | 561 J/K/mol | –
353.15 K, m1 = 0.0207 | 545 J/K/mol | –
353.15 K, m1 = 0.03 | 524 J/K/mol and 539 J/K/mol | –
353.15 K, m1 = 0.07 | 538.7 J/K/mol | –
353.15 K, m1 = 0.1502 | 533.4 J/K/mol | –
353.15 K, m1 = 0.1999 | 541.6 J/K/mol | –
353.15 K, m1 = 0.3018 | 544.1 J/K/mol | –
353.15 K, m1 = 0.5001 | 547.6 J/K/mol | –
353.15 K, m1 = 0.7003 | 549.6 J/K/mol | –
353.15 K, m1 = 0.958 | 530.3 J/K/mol | –
358.15 K, m1 = 0.0096 | 568 J/K/mol | –
358.15 K, m1 = 0.01 | – | 969.57 kg/m3
358.15 K, m1 = 0.02 | – | 969.97 kg/m3
358.15 K, m1 = 0.0207 | 552 J/K/mol | –
358.15 K, m1 = 0.03 | 529 J/K/mol and 547 J/K/mol | 970.91 kg/m3 and 970.89 kg/m3
358.15 K, m1 = 0.07 | 545.8 J/K/mol | 973.66 kg/m3
358.15 K, m1 = 0.1502 | 540.9 J/K/mol | 979.94 kg/m3
358.15 K, m1 = 0.1999 | 548.3 J/K/mol | 982.31 kg/m3
358.15 K, m1 = 0.3018 | 550.7 J/K/mol | 988.83 kg/m3
358.15 K, m1 = 0.5001 | 554.1 J/K/mol | 1000.87 kg/m3
358.15 K, m1 = 0.7003 | 556.9 J/K/mol | 1012.6 kg/m3
358.15 K, m1 = 0.958 | 536.9 J/K/mol | 1028.69 kg/m3
363.15 K, m1 = 0.0096 | 574 J/K/mol | –
363.15 K, m1 = 0.0207 | 558 J/K/mol | –
363.15 K, m1 = 0.03 | 533 J/K/mol and 553 J/K/mol | –
363.15 K, m1 = 0.07 | 551.5 J/K/mol | –
363.15 K, m1 = 0.1502 | 547.3 J/K/mol | –
363.15 K, m1 = 0.1999 | 554.3 J/K/mol | –
363.15 K, m1 = 0.3018 | 556.6 J/K/mol | –
363.15 K, m1 = 0.5001 | 559.9 J/K/mol | –
363.15 K, m1 = 0.7003 | 564.4 J/K/mol | –
363.15 K, m1 = 0.958 | 542.9 J/K/mol | –
368.15 K, m1 = 0.01 | – | 963.46 kg/m3
368.15 K, m1 = 0.02 | – | 963.16 kg/m3
368.15 K, m1 = 0.03 | – | 964.01 kg/m3 and 964.02 kg/m3
368.15 K, m1 = 0.07 | – | 966.84 kg/m3
368.15 K, m1 = 0.1502 | – | 973.05 kg/m3
368.15 K, m1 = 0.1999 | – | 975.42 kg/m3
368.15 K, m1 = 0.3018 | – | 981.89 kg/m3
368.15 K, m1 = 0.5001 | – | 994.17 kg/m3
368.15 K, m1 = 0.7003 | – | 1005.68 kg/m3
368.15 K, m1 = 0.958 | – | 1021.82 kg/m3
